Assay results as given in patent US10087192B2, “2-(het)aryl-substituted fused bicyclic heterocycle derivatives as pesticides” (BAYER CROPSCIENCE AKTIENGESELLSCHSAFT, priority 2015, dated 2018).

Tests used:
Type in all cases: in vivo
Phaedon cochleariae = Phaedon cochleariae spray test; details: after 7 days, larvae on Chinese cabbage leaf discs
Experimental: Phaedon cochleariae—Spray Test
Solvent: 78.0 parts by weight of acetone • • 1.5 parts by weight of dimethylformamide
Emulsifier: alkylaryl polyglycol ether
To produce a suitable preparation of active compound, 1 part by weight of active compound is dissolved using the stated parts by weight of solvent and made up with water containing an emulsifier concentration of 1000 ppm until the desired concentration is attained. To produce further test concentrations, the preparation is diluted with emulsifier-containing water.
After 7 days, the efficacy in % is determined. 100% means that all the beetle larvae have been killed; 0% means that no beetle larvae have been killed.

Myzus persicae = Myzus persicae spray test (Chinese cabbage leaf discs); details: after 6 days
Experimental: Myzus persicae—Spray Test Solvent: 78 parts by weight of acetone • • 1.5 parts by weight of dimethylformamide Emulsifier: alkylaryl polyglycol ether […] To produce further test concentrations, the preparation is diluted with emulsifier-containing water. Discs of Chinese cabbage leaves (Brassica pekinensis) infested by all stages of the green peach aphid (Myzus persicae) are sprayed with an active compound preparation of the desired concentration.

Lucilia cuprina = Lucilia cuprina test; details: 100 ppm, after 2 days, L1 larvae
Experimental: (§1) Solvent: dimethyl sulphoxide
(§2) To produce a suitable preparation of active compound, 10 mg of active compound are mixed with 0.5 ml of dimethyl sulphoxide, and the concentrate is diluted with water to the desired concentration.
About 20 L1 larvae of the Australian sheep blowfly (Lucilia cuprina) are transferred into a test vessel containing minced horsemeat and the active compound preparation of the desired concentration.
After 2 days, the kill in % is determined. 100% means that all the larvae have been killed; 0% means that no larvae have been killed.

Ctenocephalides felis = Ctenocephalides felis oral test; details: 100 ppm in citrated cattle blood, after 2 days
Text: Ctenocephalides felis—Oral Test Solvent: dimethyl sulphoxide […] Dilution with citrated cattle blood gives the desired concentration. About 20 unfed adult cat fleas (Ctenocephalides felis) are placed into a chamber which is closed at the top and bottom with gauze. A metal cylinder whose bottom end is closed with parafilm is placed onto the chamber. The cylinder contains the blood/active compound preparation, which can be imbibed by the fleas through the parafilm membrane.

Spodoptera frugiperda = Spodoptera frugiperda spray test (maize leaf discs); details: after 7 days, caterpillars on maize leaf discs
Experimental: Spodoptera frugiperda—Spray Test Solvent: 78.0 parts by weight of acetone • • 1.5 parts by weight of dimethylformamide Emulsifier: alkylaryl polyglycol ether […] To produce further test concentrations, the preparation is diluted with emulsifier-containing water. Leaf discs of maize (Zea mays) are sprayed with an active compound preparation of the desired concentration and, after drying, populated with caterpillars of the armyworm (Spodoptera frugiperda).

Musca domestica = Musca domestica test; details: 100 ppm, after 2 days, adult houseflies
Experimental: as §1, §2
Vessels containing a sponge treated with sugar solution and the active compound preparation of the desired concentration are populated with 10 adult houseflies (Musca domestica).
After 2 days, the kill in % is determined. 100% means that all of the flies have been killed; 0% means that none of the flies have been killed.

Boophilus microplus = Boophilus microplus injection test; details: 20 μg/animal, assessed after 7 days
Experimental: Boophilus microplus—Injection Test
as §1
To produce a suitable preparation of active compound, 10 mg of active compound are mixed with 0.5 ml of solvent and the concentrate is diluted with solvent to the desired concentration.
1 μl of the active compound solution is injected into the abdomen of 5 engorged adult female cattle ticks (Boophilus microplus). The animals are transferred into dishes and kept in a climate-controlled room.
Efficacy is assessed after 7 days by laying of fertile eggs. Eggs which are not visibly fertile are stored in a climate-controlled cabinet until the larvae hatch after about 42 days. An efficacy of 100% means that none of the ticks has laid any fertile eggs; 0% means that all the eggs are fertile.

Row | Compound | efficacy (Phaedon cochleariae; 500 g/ha) | efficacy (Myzus persicae; 500 g/ha) | efficacy (kill) (Lucilia cuprina) | efficacy (kill) (Ctenocephalides felis) | efficacy (Spodoptera frugiperda; 500 g/ha) | also measured
1 | CCS(=O)(=O)c1ccc(-n2ccc(SC(F)(F)F)c2)nc1-c1nc2cc(C(F)(F)F)ncc2n1C [Example 2] | 100% | 90% | 100% | 100% |  | 
2 | CCS(=O)(=O)c1ccc(-n2cc(S(C)(=O)=O)cn2)nc1-c1nc2cc(C(F)(F)F)ncc2n1C [Example 3] | 100% | 90% | 100% | 100% |  | 
3 | CCS(=O)(=O)c1ccc(-n2cc(C(=O)NC)cn2)nc1-c1nc2cc(C(F)(F)F)ncc2n1C [Example 4] | 100% | 90% | 100% | 100% |  | 
4 | CCS(=O)(=O)c1ccc(-n2cc(Cl)cn2)nc1-c1nc2cc(C(F)(F)F)ncc2n1C [Example 6] |  |  |  | 95% |  | efficacy (Spodoptera frugiperda; 100 g/ha): 100%
5 | CCS(=O)(=O)c1ccc(-n2ccc(Cl)n2)nc1-c1nc2cc(C(F)(F)F)ncc2n1C [Example 9] | 100% |  |  |  |  | efficacy (Spodoptera frugiperda; 100 g/ha): 83%
6 | CCS(=O)(=O)c1ccc(-n2ccc(COC)n2)nc1-c1nc2cc(C(F)(F)F)ncc2n1C [Example 10] |  | 90% | 100% |  |  | 
7 | CCS(=O)(=O)c1ccc(-n2ccc(C(=O)NC)n2)nc1-c1nc2cc(C(F)(F)F)ncc2n1C [Example 12] |  | 90% |  |  |  | 
8 | CCS(=O)(=O)c1ccc(-n2cc(C3CC3)cn2)nc1-c1nc2cc(C(F)(F)F)ncc2n1C [Example 13] | 100% |  | 100% | 80% | 100% | efficacy (kill) (Musca domestica): 100%
9 | CCS(=O)(=O)c1ccc(-n2cnc(SC)n2)nc1-c1nc2cc(C(F)(F)F)ncc2n1C [Example 15] | 100% | 90% |  |  | 83% | 
10 | CCS(=O)(=O)c1ccc(-n2cc(SC)cn2)nc1-c1nc2cc(C(F)(F)F)ncc2n1C [Example 16] | 100% | 100% |  |  | 100% | 
11 | CCS(=O)(=O)c1ccc(-n2cc(C#N)cn2)nc1-c1nc2cc(C(F)(F)F)ncc2n1C [Example 19] | 100% | 90% | 100% | 100% | 100% | efficacy (kill) (Musca domestica): 100%
12 | CCS(=O)(=O)c1ccc(-n2cccn2)nc1-c1nc2cc(C(F)(F)F)ncc2n1C [Example 21] |  |  |  |  |  | efficacy (Phaedon cochleariae; 20 g/ha): 83%; efficacy (Spodoptera frugiperda; 100 g/ha): 100%
13 | CCS(=O)(=O)c1ccc(-n2ccc(NC(C)=O)n2)nc1-c1nc2cc(C(F)(F)F)ncc2n1C [Example 23] | 100% | 90% | 100% |  |  | 
14 | CCS(=O)(=O)c1ccc(-n2ccc(C(F)(F)F)n2)nc1-c1nc2cc(C(F)(F)F)ncc2n1C [Example 25] | 100% |  | 100% | 100% | 100% | efficacy (laying of fertile eggs) (Boophilus microplus): 80%
15 | CCS(=O)(=O)c1ccc(-n2cnc(C(F)(F)F)c2)nc1-c1nc2cc(C(F)(F)F)ncc2n1C [Example 27] | 100% |  |  | 95% |  | 
16 | CCS(=O)(=O)c1ccc(-n2cc(F)cn2)nc1-c1nc2cc(C(F)(F)F)ncc2n1C [Example 28] |  |  | 100% | 98% |  | efficacy (Phaedon cochleariae; 100 g/ha): 100%; efficacy (Spodoptera frugiperda; 100 g/ha): 100%
17 | CCS(=O)(=O)c1ccc(-n2ccc(SC)n2)nc1-c1nc2cc(C(F)(F)F)ncc2n1C [Example 29] | 100% | 90% |  |  |  | 
18 | CCS(=O)(=O)c1ccc(-n2ncc(C(F)(F)F)n2)nc1-c1nc2cc(C(F)(F)F)ncc2n1C [Example 30] | 100% | 90% | 100% |  | 100% | efficacy (laying of fertile eggs) (Boophilus microplus): 95%
19 | CCS(=O)(=O)c1ccc(-n2ccc(S(C)(=O)=O)n2)nc1-c1nc2cc(C(F)(F)F)ncc2n1C [Example 35] | 100% | 90% | 100% | 100% |  | 
20 | CCS(=O)(=O)c1ccc(-n2cc(CSC)cn2)nc1-c1nc2cc(C(F)(F)F)ncc2n1C [Example 38] | 100% |  |  |  |  | 

Row | Compound | efficacy (Phaedon cochleariae; 500 g/ha) | efficacy (Myzus persicae; 500 g/ha) | efficacy (kill) (Lucilia cuprina) | efficacy (kill) (Ctenocephalides felis) | efficacy (Spodoptera frugiperda; 500 g/ha) | also measured
21 | CCS(=O)(=O)c1ccc(-n2ccn(C)c2=O)nc1-c1nc2cc(C(F)(F)F)ncc2n1C [Example 39] | 100% |  |  |  |  | efficacy (Myzus persicae; 20 g/ha): 90%
22 | CCS(=O)(=O)c1ccc(N2CCSC2=O)nc1-c1nc2cc(C(F)(F)F)ncc2n1C [Example 42] | 100% | 90% |  |  |  | 
23 | CCS(=O)(=O)c1ccc(-n2nnn(C)c2=O)nc1-c1nc2cc(C(F)(F)F)ncc2n1C [Example 46] | 100% |  |  |  | 100% | 
24 | CCS(=O)(=O)c1ccc(-n2ccc(CSC)n2)nc1-c1nc2cc(C(F)(F)F)ncc2n1C [Example 47] | 100% |  |  |  |  | 
25 | CCS(=O)(=O)c1ccc(-n2nc(C)[nH]c2=O)nc1-c1nc2cc(C(F)(F)F)ncc2n1C [Example 48] | 83% |  |  |  | 100% | 
26 | CCS(=O)(=O)c1ccc(N2CCSC2)nc1-c1nc2cc(C(F)(F)F)ncc2n1C [Example 50] | 100% | 100% |  |  |  | 
27 | CCS(=O)(=O)c1ccc(-n2nnn(CC(F)(F)F)c2=O)nc1-c1nc2cc(C(F)(F)F)ncc2n1C [Example 52] | 100% | 90% |  |  |  | 
28 | CCS(=O)(=O)c1ccc(-n2ccc(C3CC3)n2)nc1-c1nc2cc(C(F)(F)F)ncc2n1C [Example 53] | 100% | 90% | 100% | 100% | 100% | 
29 | CCS(=O)(=O)c1ccc(-n2nnc(C(F)(F)F)n2)nc1-c1nc2cc(C(F)(F)F)ncc2n1C [Example 55] | 100% | 90% |  |  | 100% | 
30 | CCS(=O)(=O)c1ccc(-n2nnn(CC(F)(F)C(F)(F)F)c2=O)nc1-c1nc2cc(C(F)(F)F)ncc2n1C [Example 56] | 100% | 100% |  |  | 100% | 
31 | CCS(=O)(=O)c1ccc(-n2c(SC)nn(C)c2=O)nc1-c1nc2cc(C(F)(F)F)ncc2n1C [Example 58] | 83% |  |  |  |  | 
32 | CCS(=O)(=O)c1ccc(-n2cc(CS(C)(=O)=O)cn2)nc1-c1nc2cc(C(F)(F)F)ncc2n1C [Example 60] | 100% |  | 95% | 100% |  | 
33 | CCS(=O)(=O)c1ccc(-c2ccccn2)nc1-c1nc2cc(C(F)(F)F)ncc2n1C [Example 71] | 100% |  |  |  | 100% | 
34 | CCS(=O)(=O)c1ccc(-c2cccnc2)nc1-c1nc2cc(C(F)(F)F)ncc2n1C [Example 72] |  | 90% |  |  |  | efficacy (Phaedon cochleariae; 100 g/ha): 83%
35 | CCS(=O)(=O)c1ccc(-c2cc[nH]c2)nc1-c1nc2cc(C(F)(F)F)ncc2n1C [Example 73] | 100% | 90% |  |  |  | 
36 | CCS(=O)(=O)c1ccc(-c2ccn[nH]2)nc1-c1nc2cc(C(F)(F)F)ncc2n1C [Example 75] | 100% |  |  |  | 100% | 
37 | CCS(=O)(=O)c1ccc(-c2cc(Cl)cs2)nc1-c1nc2cc(C(F)(F)F)ncc2n1C [Example 77] |  |  |  |  | 100% | 
38 | CCS(=O)(=O)c1ccc(-c2cnn(C)c2)nc1-c1nc2cc(C(F)(F)F)ncc2n1C [Example 83] | 100% | 90% |  |  | 100% | 
39 | CCS(=O)(=O)c1ccc(-c2cn[nH]c2)nc1-c1nc2cc(C(F)(F)F)ncc2n1C [Example 84] | 83% |  |  |  | 100% | 
40 | CCS(=O)(=O)c1ccc(-c2sccc2Cl)nc1-c1nc2cc(C(F)(F)F)ncc2n1C [Example 85] |  |  |  |  | 100% | 
